SMILES strings stand for the structures.

This assay addresses human PCSK9 (Homo sapiens, UniProt Q8NBP7). Nature of the assay: PCSK9 ligand binding TR-FRET assay (interference with binding of human PCSK9 to human LDLR). The following applies: for Max % inhibition: PCSK9 FRET assay, efficacy (Amax), 100% = 1 uM unlabeled human PCSK9, 0% = DMSO; for IC50: TR-FRET, human PCSK9 Alexa Fluor 647 / human LDLR extracellular domain-Europium Kryptate, read-out: PCSK9 FRET Assay IC50. The procedure, abridged:
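Threefold compound dilutions were pre-incubated 30 min with PCSK9, after which 4 nM Europium Kryptate-tagged human LDLR ectodomain was added for a further 2 h.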

human PCSK9, sequence (Q8NBP7 153-692): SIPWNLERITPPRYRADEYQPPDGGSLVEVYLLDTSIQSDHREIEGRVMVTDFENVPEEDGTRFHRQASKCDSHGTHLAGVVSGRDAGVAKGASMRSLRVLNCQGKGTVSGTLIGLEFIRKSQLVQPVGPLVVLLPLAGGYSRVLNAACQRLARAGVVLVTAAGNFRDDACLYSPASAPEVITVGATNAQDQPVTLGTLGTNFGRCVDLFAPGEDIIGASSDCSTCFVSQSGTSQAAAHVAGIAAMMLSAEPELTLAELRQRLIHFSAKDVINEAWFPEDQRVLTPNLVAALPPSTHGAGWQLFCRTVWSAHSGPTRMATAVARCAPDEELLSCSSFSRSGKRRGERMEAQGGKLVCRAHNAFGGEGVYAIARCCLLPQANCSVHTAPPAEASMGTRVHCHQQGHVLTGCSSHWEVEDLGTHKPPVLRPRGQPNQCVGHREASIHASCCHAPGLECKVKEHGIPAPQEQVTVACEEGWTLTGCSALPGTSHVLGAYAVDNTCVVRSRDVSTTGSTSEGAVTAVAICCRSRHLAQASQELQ
human PCSK9, sequence (Q8NBP7 31-152 partner limits assumed): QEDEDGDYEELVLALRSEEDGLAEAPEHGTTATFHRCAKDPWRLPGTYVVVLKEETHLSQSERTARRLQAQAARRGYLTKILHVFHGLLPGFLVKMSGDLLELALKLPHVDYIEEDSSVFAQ

Broadly, the IC50 is the point on the concentration scale where inhibition reaches its midpoint. Consider `COC[C@@H]1NC(=O)[C@H](C)N(Cc2ccc(Cl)cc2Oc2ccc(-c3cnc(CN(C)C)n3C)cc2)C(=O)C[C@@H](Cc2cccc[n+]2[O-])C(=O)N(C)[C@H]2CCCC[C@@H]2NC(=O)C[C@H](Cc2ccc(Cl)cc2)N(C)C1=O` [Compound 172, 2-(((4S,7S,10S,14R,16aS,20aS)-11-(4-chloro-2-(4-(2-((dimethylamino)methyl)-1-methyl-1H-imidazol-5-yl)phenoxy)benzyl)-4-(4-chlorobenzyl)-7-(methoxymethyl)-5,10,16-trimethyl-2,6,9,12,15-pentaoxodocosahydrobenzo[l][1,4,7,11,14]pentaazacyclooctadecin-14-yl)methyl)pyridine 1-oxide], for which the Max % inhibition was determined as 102.44% and the IC50 was determined as 1.4 nM.
As to `CC[C@H]1C(=O)N[C@@H](COC)C(=O)N(C)[C@@H](Cc2ccc(Cl)cc2)CC(=O)NC[C@H](C)N(C)C(=O)[C@H](C)CC(=O)N1Cc1ccc(Cl)cc1Oc1ccc(-c2cnc(CN(C)C)n2C)cc1` [Compound 173, (2S,5S,8S,13S,16R)-1-(4-chloro-2-(4-(2-((dimethylamino)methyl)-1-methyl-1H-imidazol-5-yl)phenoxy)benzyl)-8-(4-chlorobenzyl)-2-ethyl-5-(methoxymethyl)-7,13,14,16-tetramethyl-1,4,7,11,14-pentaazacyclooctadecane-3,6,10,15,18-pentaone], the Max % inhibition is given as 84.80% and the IC50 stood at 73.3 nM.
Regarding `COC[C@@H]1NC(=O)[C@H](CC(=O)OC(C)(C)C)N(Cc2ccc(Cl)cc2Oc2ccc(-c3cnc(CN(C)C)n3C)cc2)C(=O)C[C@@H](Cc2ccccc2)C(=O)N(C)[C@@H](C)CNC(=O)C[C@H](Cc2ccc(Cl)cc2)N(C)C1=O` [Compound 174, tert-butyl 2-((2S,5S,8S,13S,16R)-16-benzyl-1-(4-chloro-2-(4-(2-((dimethylamino)methyl)-1-methyl-1H-imidazol-5-yl)phenoxy)benzyl)-8-(4-chlorobenzyl)-5-(methoxymethyl)-7,13,14-trimethyl-3,6,10,15,18-pentaoxo-1,4,7,11,14-pentaazacyclooctadecan-2-yl)acetate], the Max % inhibition turned out to be 102.02% and the IC50 amounted to 11.4 nM.
Regarding `COC[C@@H]1NC(=O)[C@H](CCC(=O)N2CCOCC2)N(Cc2ccc(Cl)cc2Oc2ccc(-c3cnc(CN(C)C)n3C)cc2)C(=O)C[C@@H](Cc2ccccc2)C(=O)N(C)[C@@H](C)CNC(=O)C[C@H](Cc2ccc(Cl)cc2)N(C)C1=O` [Compound 175, (2S,5S,8S,13S,16R)-16-benzyl-1-(4-chloro-2-(4-(2-((dimethylamino)methyl)-1-methyl-1H-imidazol-5-yl)phenoxy)benzyl)-8-(4-chlorobenzyl)-5-(methoxymethyl)-7,13,14-trimethyl-2-(3-morpholino-3-oxopropyl)-1,4,7,11,14-pentaazacyclooctadecane-3,6,10,15,18-pentaone], the Max % inhibition turned out to be 102.55% and the IC50 came out at 5.8 nM.
On to `COC[C@@H]1NC(=O)[C@H](C)N(Cc2ccc(Cl)cc2Oc2ccc(-c3cnc4c(c3)CN(C(=O)[C@H]3CCNC3)CC4)cc2)C(=O)C[C@@H](Cc2ccccc2)C(=O)N(C)[C@@H](C)CNC(=O)C[C@H](Cc2ccc(Cl)cc2)N(C)C1=O` [Compound 176, (2S,5S,8S,13S,16R)-16-benzyl-1-(4-chloro-2-(4-(6-((S)-pyrrolidine-3-carbonyl)-5,6,7,8-tetrahydro-1,6-naphthyridin-3-yl)phenoxy)benzyl)-8-(4-chlorobenzyl)-5-(methoxymethyl)-2,7,13,14-tetramethyl-1,4,7,11,14-pentaazacyclooctadecane-3,6,10,15,18-pentaone], for which the Max % inhibition is given as 70.99% and the IC50 is 4.3 nM.
In the case of `COC[C@@H]1NC(=O)[C@H](C)N(Cc2ccc(Cl)cc2Oc2ccc(-c3cnc(CN(C)C)n3C)cc2)C(=O)C[C@@H](Cc2ccccc2)C(=O)N(C)[C@@H](C(=O)O)CNC(=O)C[C@H](Cc2ccc(Cl)cc2)N(C)C1=O` [Compound 177, (2S,5S,8S,13R,16R)-16-benzyl-1-(4-chloro-2-(4-(2-((dimethylamino)methyl)-1-methyl-1H-imidazol-5-yl)phenoxy)benzyl)-8-(4-chlorobenzyl)-5-(methoxymethyl)-2,7,14-trimethyl-3,6,10,15,18-pentaoxo-1,4,7,11,14-pentaazacyclooctadecane-13-carboxylic acid], the Max % inhibition is 107.53% and the IC50 amounted to 9.8 nM.
Take `COC[C@@H]1NC(=O)[C@H](C)N(Cc2ccc(OC(F)F)cc2Oc2ccc(-c3cnc(CN(C)C)n3C)cc2)C(=O)C[C@@H](Cc2ccccc2)C(=O)N(C)[C@@H](C)CNC(=O)C[C@H](Cc2ccc(Cl)cc2)N(C)C1=O` [Compound 179, (2S,5S,8S,13S,16R)-16-benzyl-8-(4-chlorobenzyl)-1-(4-(difluoromethoxy)-2-(4-(2-((dimethylamino)methyl)-1-methyl-1H-imidazol-5-yl)phenoxy)benzyl)-5-(methoxymethyl)-2,7,13,14-tetramethyl-1,4,7,11,14-pentaazacyclooctadecane-3,6,10,15,18-pentaone]: the Max % inhibition was found to be 103.76% and the IC50 was 0.6 nM.
On to `COC[C@@H]1NC(=O)[C@H](C)N(Cc2ccc(Cl)cc2Oc2ccc(-c3cnc(CN(C)C)n3C)cc2)C(=O)C[C@@H](Cc2ccc(F)c[n+]2[O-])C(=O)N(C)[C@@H](C)CNC(=O)C[C@H](Cc2ccc(Cl)cc2)N(C)C1=O` [Compound 180, 2-(((2S,5S,8S,13S,16R)-1-(4-chloro-2-(4-(2-((dimethylamino)methyl)-1-methyl-1H-imidazol-5-yl)phenoxy)benzyl)-8-(4-chlorobenzyl)-5-(methoxymethyl)-2,7,13,14-tetramethyl-3,6,10,15,18-pentaoxo-1,4,7,11,14-pentaazacyclooctadecan-16-yl)methyl)-5-fluoropyridine 1-oxide], for which the Max % inhibition is recorded as 102.27% and the IC50 was found to be 3.1 nM.
On the same counts, the results for `CCc1ncc(-c2ccc(Oc3cc(Cl)ccc3CN3C(=O)C[C@@H](Cc4ccccc4)C(=O)N(C)[C@@H](C)CNC(=O)C[C@H](Cc4ccc(Cl)cc4)N(C)C(=O)[C@H](COC)NC(=O)[C@@H]3C)cc2)n1C` [Compound 181, (2S,5S,8S,13S,16R)-16-benzyl-1-(4-chloro-2-(4-(2-ethyl-1-methyl-1H-imidazol-5-yl)phenoxy)benzyl)-8-(4-chlorobenzyl)-5-(methoxymethyl)-2,7,13,14-tetramethyl-1,4,7,11,14-pentaazacyclooctadecane-3,6,10,15,18-pentaone] are 54.93% and 10.3 nM.
In the case of `COC[C@@H]1NC(=O)[C@H](CCCNC(=O)OC(C)(C)C)N(Cc2ccc(Cl)cc2Oc2ccc(-c3cnc(CN(C)C)n3C)cc2)C(=O)C[C@@H](Cc2ccccc2)C(=O)N(C)[C@H]2CCCC[C@@H]2NC(=O)C[C@H](Cc2ccc(Cl)cc2)N(C)C1=O` [Compound 182, tert-butyl (3-((4S,7S,10S,14R,16aS,20aS)-14-benzyl-11-(4-chloro-2-(4-(2-((dimethylamino)methyl)-1-methyl-1H-imidazol-5-yl)phenoxy)benzyl)-4-(4-chlorobenzyl)-7-(methoxymethyl)-5,16-dimethyl-2,6,9,12,15-pentaoxodocosahydrobenzo[l][1,4,7,11,14]pentaazacyclooctadecin-10-yl)propyl)carbamate], the Max % inhibition was 99.86% and the IC50 turned out to be 1.2 nM.
On the same counts, the results for `COC[C@@H]1NC(=O)[C@H](C)N(Cc2ccc(Cl)cc2Oc2ccc(-c3cnc(CN(C)C)n3C)cc2)C(=O)C[C@@H](CC2CCCCC2)C(=O)N(C)[C@@H](C)CNC(=O)C[C@H](Cc2ccc(Cl)cc2)N(C)C1=O` [Compound 183, (2S,5S,8S,13S,16R)-1-(4-chloro-2-(4-(2-((dimethylamino)methyl)-1-methyl-1H-imidazol-5-yl)phenoxy)benzyl)-8-(4-chlorobenzyl)-16-(cyclohexylmethyl)-5-(methoxymethyl)-2,7,13,14-tetramethyl-1,4,7,11,14-pentaazacyclooctadecane-3,6,10,15,18-pentaone] are 81.31% and 11.2 nM.
Take `COC[C@@H]1NC(=O)C(C)N(Cc2ccc(Cl)cc2Oc2ccc(-c3cnc(CN(C)C)n3C)cc2)C(=O)C[C@@H](C)C(=O)N(C)[C@@H](CC(C)C)CNC(=O)C[C@H](Cc2ccc(Cl)cc2)N(C)C1=O` (stereo partly drawn) [Compound 184, (5S,8S,13S,16R)-1-(4-chloro-2-(4-(2-((dimethylamino)methyl)-1-methyl-1H-imidazol-5-yl)phenoxy)benzyl)-8-(4-chlorobenzyl)-13-isobutyl-5-(methoxymethyl)-2,7,14,16-tetramethyl-1,4,7,11,14-pentaazacyclooctadecane-3,6,10,15,18-pentaone]: the Max % inhibition was found to be 54.06% and the half-maximal inhibitory concentration (IC50) was 9.4 nM.
For the compound `COC[C@@H]1NC(=O)[C@H](C)N(Cc2ccc(Cl)cc2Oc2ccc(-c3cnc(CN(C)C)n3C)cc2)C(=O)C[C@@H](Cc2ccccc2)C(=O)N(C)[C@@H](C)[C@H](C)NC(=O)C[C@H](Cc2ccc(Cl)cc2)N(C)C1=O` [Compound 186, (2S,5S,8S,12S,13S,16R)-16-benzyl-1-(4-chloro-2-(4-(2-((dimethylamino)methyl)-1-methyl-1H-imidazol-5-yl)phenoxy)benzyl)-8-(4-chlorobenzyl)-5-(methoxymethyl)-2,7,12,13,14-pentamethyl-1,4,7,11,14-pentaazacyclooctadecane-3,6,10,15,18-pentaone], the Max % inhibition came out at 103.39% and the IC50 was 0.6 nM.
In the case of `COC[C@@H]1NC(=O)[C@H](C)N(Cc2ccc(Cl)cc2Oc2ccc(-c3cnc(CN(C)C)n3C)cc2)C(=O)C[C@@H](Cc2ccccc2)C(=O)N(C)[C@H]2CCOC[C@@H]2NC(=O)C[C@H](Cc2ccc(Cl)cc2)N(C)C1=O` [Compound 187, (4S,7S,10S,14R,16aS,20aR)-14-benzyl-11-(4-chloro-2-(4-(2-((dimethylamino)methyl)-1-methyl-1H-imidazol-5-yl)phenoxy)benzyl)-4-(4-chlorobenzyl)-7-(methoxymethyl)-5,10,16-trimethyltetradecahydro-1H-pyrano[3,4-l][1,4,7,11,14]pentaazacyclooctadecine-2,6,9,12,15(3H)-pentaone], the Max % inhibition is listed as 94.30% and the IC50 came to 1.3 nM.

The values above are taken from patent publication US20230089867A1, “CYCLIC PENTAMER COMPOUNDS AS PROPROTEIN CONVERTASE SUBTILISIN/KEXIN TYPE 9 (PCSK9) INHIBITORS FOR THE TREATMENT OF METABOLIC DISORDER” (Novartis AG, priority 2018, published 2023).
